Test system: cytokine-stimulated human umbilical vein endothelial cells
Test: Cell Adhesion Assay: adherence of fluorescently-labelled leukocytes to endothelial cell monolayers
Assay type: cell-based
Conditions: inhibition of cytokine-stimulated adhesion minus basal adhesion; calcein-AM labelled leukocytes on HUVEC monolayers
Procedure: The antiadhesion activity of compounds of the invention was determined using a modification of the previously described method, Jurgensen, C. H. et. al., J. Immunol. 144: 653-661. The adhesiveness of cytokine-stimulated human umbilical vein endothelial cells was assessed by quantitating the adherence of fluorescently-labelled (calcein-AM, Molecular Probes, Eugene, Oreg.) leukocytes to endothelial cell monolayers. Activity was determined by calculating inhibition of cytokine-stimulated adhesion minus the basal adhesion (unstimulated).

For `COCCOCCOCCOCCOCCOCCOCCOCCOCCNC(=O)/C=C/c1cccc(-c2nc3c(=O)n(CC4CCCCC4)c(=O)n(CC4CCCCC4)c3[nH]2)c1` [Example 67, (E)-3-(1,3-bis(cyclohexylmethyl)-1,2,3,6-tetrahydro-2,6-dioxo-9H-purin-8-yl)cinnamic Acid Nonaethylene Glycol Methyl Ether Amide], which IC50 is on record?
The IC50 was 2000 ± 820 nM.

For `COCCOCCOCCOCCOCCOCCOCCOCCOCCOC(=O)/C=C/c1ccc(-c2nc3c(c(=O)n(C)c(=O)n3CC3CCCCC3)n2C)cc1` [Example 105, (E)-4-[(3-Cyclohexylmethyl)-2,3,6,7-tetrahydro-2,6dioxo-1,7-dimethyl-1H-purin-8-yl]cinnamic Acid Nonaethylene Glycol Methyl Ether Ester], which IC50 is on record?
The IC50 was 200 ± 80 nM.

How did the IC50 turn out when `CCCCCCCCCCCCOCCOCCOCCOCCOCCOCCOC(=O)/C=C/c1ccc(-c2nc3c(=O)n(CC4CCCCC4)c(=O)n(CC4CCCCC4)c3[nH]2)cc1` [Example 59, (E)-4-(1,3-bis(cyclohexylmethyl)-1,2,3,6-tetrahydro-2,6-dioxo-9H-purin-8-yl)cinnamic Acid Hexaethylene Glycol dodecyl Ether Ester] was run?
Its IC50 is 57 ± 24 nM.

`COCCOCCOCCOCCOCCOCCOCCOCCOCCOC(=O)c1ccc(-c2nc3c(c(=O)n(CC4CCCCC4)c(=O)n3CC3CCCCC3)n2Cc2ccccc2)cc1` [Example 88, 4-(1,3-Bis(cyclohexylmethyl)-2,3,6,7-tetrahydro-2,6-dioxo-7-benzyl-1H-purin-8-yl)benzoic Acid Nonaethylene Glycol Methyl Ether Ester] was tested. Which IC50 did it give?
The IC50 was 49 ± 19 nM.

For `COCCOCCOCCOCCOCCOCCOCCOCCOCCN(C)C(=O)c1ccc(-c2nc3c(=O)n(CC4CCCCC4)c(=O)n(CC4CCCCC4)c3[nH]2)cc1` [Example 76, 4-(1,3-Bis(cyclohexylmethyl)-1,2,3,6-tetrahydro-2,6-dioxo-9H-purin-8-yl) benzoic Acid-N-methyl-Nonaethylene Glycol Methyl Ether Amide], which IC50 is on record?
The IC50 was 350 ± 130 nM.

Which IC50 does the source give for `COCCOCCOCCOCCOCCOCCOCCOCCOCCOC(=O)/C=C/c1ccc(-c2nc3c(=O)n(CC4CCCCC4)c(=O)n(C)c3[nH]2)cc1` [Example 56, (E)-4-((1-cyclohexylmethyl-3-methyl)-1,2,3,6-tetrahydro-2,6-dioxo-9H-purin-8-yl)cinnamic Acid Nonaethylene Glycol Methyl Ether Ester] here?
Its IC50 is 160 ± 70 nM.

Which IC50 does the source give for `COCCOCCOCCOCCOCCOCCOCCOCCOCCOC(=O)/C=C/c1ccc(-c2nc3c(=O)n(CCc4ccccc4)c(=O)n(CCc4ccccc4)c3[nH]2)cc1` [Example 55, (E)-4-(1,3-bis(2-phenylethyl)-1,2,3,6-tetrahydro-2,6-dioxo-9H-purin-8-yl)cinnamic Acid Nonaethylene Glycol Methyl Ether Ester] here?
Its IC50 is 51 ± 45 nM.

Which IC50 does the source give for `COCCOCCOCCOCCOCCOCCOCCOC(=O)/C=C/c1ccc(-c2nc3c(c(=O)n(CC4CCCCC4)c(=O)n3CC3CCCCC3)n2C)cc1` [Example 111, (E)-4-(1,3-Bis(cyclohexylmethyl)-2,3,6,7-tetrahydro-2,6-dioxo-7-methyl-1H-purin-8-yl)cinnamic Acid Heptaethylene Glycol Methyl Ether Ester] here?
The IC50 was < 0.1 nM.

`COCCOCCOCCOCCOCCOCCOCCOCCOCCOC(=O)c1ccc(-c2nc3c(c(=O)n(CC4CCCCC4)c(=O)n3CC3CCCCC3)n2C)cc1` [Example 89, 4-(1,3-Bis(cyclohexylmethyl)-2,3,6,7-tetrahydro-2,6-dioxo-7-methyl-1H-purin-8-yl)benzoic Acid Nonaethylene Glycol Methyl Ether Ester] was tested. Which IC50 did it give?
Its IC50 is 38 ± 18 nM.

With `COCCOCCOCCOCCOCCOCCOCCOCCOCCNC(=O)/C=C/c1ccc(-c2nc3c(=O)n(CC(C)C)c(=O)n(CC(C)C)c3[nH]2)cc1` [Example 72, (E)-4-(1,3-bis(2-methylpropyl)-1,2,3,6-tetrahydro-2,6-dioxo-9H-purin-8-yl)cinnamic Acid Nonaethylene Glycol Methyl Ether Amide] as the molecule, how does the IC50 read?
Its IC50 is > 2000 nM.
